Measurements: the supplement of paper PMC13380429

Key:
Conditions in all cases: 72 h
Caco-2 [1] = test: drug sensitivity score (DSS) for viability; higher = more toxic; extreme values may be limits of the assay
Vero E6 [2] = test: as above
HepG2 [3] = test: as above
U2OS [4] = test: as above
Calu-3 [5] = test: as above
Caco-2 [6] = test: relative viability EC50 (midpoint between 100% and the lowest measured viability); higher = less toxic
Vero E6 [7] = test: as above
HepG2 [8] = test: as above
Calu-3 [9] = test: as above
Caco-2 [10] = test: cell viability relative to DMSO; higher = less toxic
Vero E6 [11] = test: as above
HepG2 [12] = test: as above
U2OS [13] = test: as above
Calu-3 [14] = test: as above
U2OS [15] = test: relative viability EC50 (midpoint between 100% and the lowest measured viability); higher = less toxic

| Compound | drug sensitivity score (Caco-2 [1]) | drug sensitivity score (Vero E6 [2]) | drug sensitivity score (HepG2 [3]) | drug sensitivity score (U2OS [4]) | drug sensitivity score (Calu-3 [5]) | relative viability EC50 (Caco-2 [6]) [µM] | relative viability EC50 (Vero E6 [7]) [µM] | relative viability EC50 (HepG2 [8]) [µM] | relative viability EC50 (Calu-3 [9]) [µM] | cell viability (Caco-2 [10]; 1 nM) [%] | cell viability (Caco-2 [10]; 10 nM) [%] | cell viability (Caco-2 [10]; 100 nM) [%] | cell viability (Caco-2 [10]; 1000 nM) [%] | cell viability (Caco-2 [10]; 10000 nM) [%] | cell viability (Vero E6 [11]; 1 nM) [%] | cell viability (Vero E6 [11]; 10 nM) [%] | cell viability (Vero E6 [11]; 100 nM) [%] | cell viability (Vero E6 [11]; 1000 nM) [%] | cell viability (Vero E6 [11]; 10000 nM) [%] | cell viability (HepG2 [12]; 1 nM) [%] | cell viability (HepG2 [12]; 10 nM) [%] | cell viability (HepG2 [12]; 100 nM) [%] | cell viability (HepG2 [12]; 1000 nM) [%] | cell viability (HepG2 [12]; 10000 nM) [%] | cell viability (U2OS [13]; 1 nM) [%] | cell viability (U2OS [13]; 10 nM) [%] | cell viability (U2OS [13]; 100 nM) [%] | cell viability (U2OS [13]; 1000 nM) [%] | cell viability (U2OS [13]; 10000 nM) [%] | cell viability (Calu-3 [14]; 1 nM) [%] | cell viability (Calu-3 [14]; 10 nM) [%] | cell viability (Calu-3 [14]; 100 nM) [%] | cell viability (Calu-3 [14]; 1000 nM) [%] | cell viability (Calu-3 [14]; 10000 nM) [%] | relative viability EC50 (U2OS [15]) [µM] |
| --- | --- | --- | --- | --- | --- | --- | --- | --- | --- | --- | --- | --- | --- | --- | --- | --- | --- | --- | --- | --- | --- | --- | --- | --- | --- | --- | --- | --- | --- | --- | --- | --- | --- | --- | --- |
| Nc1nc(N)c2nc(-c3cccc(O)c3)cnc2n1 | 1.6 | 0.2 | 3.9 | 3.2 | 6.6 | > 10 | > 10 | 2 | 1.4 | 93.5 | 105 | 99.1 | 84.5 | 86.1 | 103 | 95.5 | 97.7 | 98.4 | 86.7 | 98.1 | 99.7 | 102 | 92.5 | 49.6 | 95.6 | 99.4 | 99.7 | 95.5 | 51.7 | 99.9 | 97.5 | 103 | 80 | 34.1 | – |
| N[C@@H](C(=O)N[C@@H]1C(=O)N2C(C(=O)O)=C(Cl)CC[C@H]12)c1ccccc1 [loracarbef] | 0 | – | 0 | 0 | 0 | > 10 | – | > 10 | > 10 | 107 | 104 | 95.9 | 91.5 | 98.2 | – | – | – | – | – | 100 | 100 | 96.3 | 92 | 97.6 | 93.6 | 102 | 95.7 | 100 | 101 | 88.5 | 102 | 96.6 | 102 | 99 | > 10 |
